Reference: ChEMBL document CHEMBL4619703, “Synthesis, G-Quadruplex DNA binding and cytotoxic properties of naphthalimide substituted styryl dyes” (Bioorg Med Chem, 2020)
Calls of active or inactive are those of the source. The rule behind the calls is not given here.

Assays:
[1] = system: HeLa; test: Antiproliferative activity against human HeLa cells assessed as reduction in cell viability after 72 hrs by CCK8 assay; assay type: functional
[2] = system: HCT-116; test: Antiproliferative activity against human HCT116 cells assessed as reduction in cell viability after 72 hrs by CCK8 assay; assay type: functional
[3] = system: MDA-MB-231; test: Antiproliferative activity against human MDA-MB-231 cells assessed as reduction in cell viability after 72 hrs by CCK8 assay; assay type: functional
[4] = system: HEK-293T; test: Cytotoxicity against human 293T cells assessed as reduction in cell viability after 72 hrs by CCK8 assay; assay type: cell-based
[5] = system: Quadruplex DNA; test: Binding affinity to human c-Myc G-quadruplex DNA at 2 uM incubated for 2 mins by UV- vis spectrophotometric analysis; assay type: nucleic-acid assay
[6] = system: Quadruplex DNA; test: Binding affinity to human 22AG G-quadruplex DNA by spectrofluorophotometric method; assay type: nucleic-acid assay
[7] = biological target: Quadruplex DNA; test: Displacement of TO from human G3T3 G-quadruplex DNA at pH 7.4 by spectrofluorophotometric FID assay; assay type: nucleic-acid assay
[8] = system: Quadruplex DNA; test: Binding affinity to human CM22 G-quadruplex DNA at 2 uM incubated for 2 mins by UV- vis spectrophotometric analysis; assay type: nucleic-acid assay
[9] = system: Quadruplex DNA; test: Binding affinity to human Pu27 G-quadruplex DNA at 2 uM incubated for 2 mins by UV- vis spectrophotometric analysis; assay type: nucleic-acid assay
[10] = system: Quadruplex DNA; test: Binding affinity to human Hum24 G-quadruplex DNA at 2 uM incubated for 2 mins by UV- vis spectrophotometric analysis; assay type: nucleic-acid assay
[11] = system: Quadruplex DNA; test: Binding affinity of human G3T3 G-quadruplex DNA at 2 uM incubated for 2 mins by UV- vis spectrophotometric analysis; assay type: nucleic-acid assay
[12] = system: Quadruplex DNA; test: Binding affinity to human Htg-21 G-quadruplex DNA at 2 uM incubated for 2 mins by UV- vis spectrophotometric analysis; assay type: nucleic-acid assay
[13] = system: Quadruplex DNA; test: Binding affinity to human 22AG G-quadruplex DNA at 2 uM incubated for 2 mins by UV- vis spectrophotometric analysis; assay type: nucleic-acid assay
[14] = system: Quadruplex DNA; test: Binding affinity to human EAD G-quadruplex DNA at 2 uM incubated for 2 mins by UV- vis spectrophotometric analysis; assay type: nucleic-acid assay
[15] = system: Quadruplex DNA; test: Binding affinity to human G-Quadruplex DNA assessed as aggregation at 10 uM by TEM analysis; assay type: nucleic-acid assay
[16] = system: Quadruplex DNA; test: Binding affinity to human CM22 G-quadruplex DNA by spectrofluorophotometric method; assay type: nucleic-acid assay
[17] = biological target: Quadruplex DNA; test: Displacement of TO from human 22AG G-quadruplex DNA at pH 7.4 by spectrofluorophotometric based FID assay; assay type: nucleic-acid assay
[18] = biological target: Quadruplex DNA; test: Displacement of TO from human CM22 G-quadruplex DNA at pH 7.4 by spectrofluorophotometric FID assay; assay type: nucleic-acid assay
[19] = biological target: Quadruplex DNA; test: Displacement of TO from human c-Myc G-quadruplex DNA at pH 7.4 by spectrofluorophotometric FID assay; assay type: nucleic-acid assay
[20] = biological target: Quadruplex DNA; test: Displacement of TO from human Htg 21 G-quadruplex DNA at pH 7.4 by spectrofluorophotometric FID assay; assay type: nucleic-acid assay
[21] = biological target: Quadruplex DNA; test: Displacement of TO from human Hum 24 G-quadruplex DNA at pH 7.4 by spectrofluorophotometric FID assay; assay type: nucleic-acid assay
[22] = biological target: Quadruplex DNA; test: Displacement of TO from human Pu 27 G-quadruplex DNA at pH 7.4 by spectrofluorophotometric FID assay; assay type: nucleic-acid assay
[23] = biological target: Quadruplex DNA; test: Displacement of TO from human EAD G-quadruplex DNA at pH 7.4 by spectrofluorophotometric FID assay; assay type: nucleic-acid assay
[24] = biological target: DNA; test: Displacement of TO from ds26 DNA (unknown origin) at pH 7.4 by spectrofluorophotometric FID assay; assay type: nucleic-acid assay
[25] = system: Calf thymus DNA; test: Displacement of TO from calf thymus DNA at pH 7.4 by spectrofluorophotometric FID assay; assay type: nucleic-acid assay, Bos taurus
[26] = biological target: Poly(dG-dC)oligonucleotide; test: Displacement of TO from Polyd(G-C)7 DNA at pH 7.4 by spectrofluorophotometric FID assay; assay type: nucleic-acid assay
[27] = system: Quadruplex DNA; test: Binding affinity to human c-Myc G-quadruplex DNA assessed as inhibition of G4/hemin peroxidase at 1 to 5 uM preincubated for 1 hr followed by hemin addition and further incubated for 1 hr and H2O2 addition and measured after 30 mins by UV spectrophotometric method; assay type: nucleic-acid assay
[28] = system: Quadruplex DNA; test: Binding affinity to human Hum24 G-quadruplex DNA assessed as inhibition of G4/hemin peroxidase at 1 to 5 uM preincubated for 1 hr followed by hemin addition and further incubated for 1 hr and H2O2 addition and measured after 30 mins by UV spectrophotometric method; assay type: nucleic-acid assay
[29] = system: Quadruplex DNA; test: Binding affinity to human 22AG G-quadruplex DNA assessed as inhibition of G4/hemin peroxidase at 1 to 5 uM preincubated for 1 hr followed by hemin addition and further incubated for 1 hr and H2O2 addition and measured after 30 mins by UV spectrophotometric method; assay type: nucleic-acid assay
[30] = system: Quadruplex DNA; test: Binding affinity to G-Quadruplex DNA in human HeLa cells assessed as red fluorescence emission in nucleus at 20 uM after 30 min by DAPI staining based confocal microscopic method; assay type: cell-based
[31] = system: Quadruplex DNA; test: Binding affinity to human c-Myc G-quadruplex DNA assessed as fluorescence intensity at 2 uM by fluorescence spectra analysis; assay type: nucleic-acid assay
[32] = system: Quadruplex DNA; test: Binding affinity to human Htg-21 G-quadruplex DNA assessed as fluorescence intensity at 2 uM by fluorescence spectra analysis; assay type: nucleic-acid assay
[33] = system: Quadruplex DNA; test: Binding affinity to human CM22 G-quadruplex DNA assessed as fluorescence intensity at 2 uM by fluorescence spectra analysis; assay type: nucleic-acid assay
[34] = system: Quadruplex DNA; test: Binding affinity to human 22AG G-quadruplex DNA assessed as fluorescence intensity at 2 uM by fluorescence spectra analysis; assay type: nucleic-acid assay
[35] = system: Quadruplex DNA; test: Binding affinity to human Hum24 G-quadruplex DNA assessed as fluorescence intensity at 2 uM by fluorescence spectra analysis; assay type: nucleic-acid assay
[36] = system: Quadruplex DNA; test: Binding affinity to human G3T3 G-quadruplex DNA assessed as fluorescence intensity at 2 uM by fluorescence spectra analysis; assay type: nucleic-acid assay
[37] = system: Quadruplex DNA; test: Binding affinity to human EAD G-quadruplex DNA assessed as fluorescence intensity at 2 uM by fluorescence spectra analysis; assay type: nucleic-acid assay
[38] = system: Quadruplex DNA; test: Binding affinity to human Pu27 G-quadruplex DNA assessed as fluorescence intensity at 2 uM by fluorescence spectra analysis; assay type: nucleic-acid assay
[39] = system: ssDNA; test: Binding affinity to SS26 DNA (unknown origin) assessed as fluorescence intensity at 2 uM by fluorescence spectra analysis; assay type: nucleic-acid assay
[40] = system: DNA; test: Binding affinity to ds26 DNA (unknown origin) assessed as fluorescence intensity at 2 uM by fluorescence spectra analysis; assay type: nucleic-acid assay
[41] = system: Calf thymus DNA; test: Binding affinity to calf thymus DNA assessed as fluorescence intensity at 2 uM by fluorescence spectra analysis; assay type: nucleic-acid assay; settings: Bos taurus
[42] = system: Poly(dG-dC)oligonucleotide; test: Binding affinity to poly (G-C)7 DNA assessed as fluorescence intensity at 2 uM by fluorescence spectra analysis; assay type: nucleic-acid assay

Q: O=c1[nH]cc(F)c(=O)[nH]1 [FLUOROURACIL] was tested. Which Activity [1] did it give?
A: 0.8046 µM

Q: What about the Activity [2] of the same compound?
A: 1.123 µM

Q: And the Activity [3]?
A: 0.8615 µM

Q: And the Activity [4]?
A: 0.5879 µM

Q: What does the source list for C[n+]1c(/C=C/c2ccc(N3CCN(CCCN4C(=O)c5cccc6cccc(c56)C4=O)CC3)cc2)ccc2c3ccccc3ccc21.[I-]?
A: Activity [5]: Active; Ka [6]: 0.27 ×10⁶ /M; DC50 [7]: 410 nM; Activity [8]: Active; Activity [9]: Active; Activity [10]: Active; Activity [11]: Active; Activity [12]: Active; Activity [13]: Active; Activity [14]: Active; Activity [15]: Active; Ka [16]: 290000 M⁻¹; DC50 [17]: 480 nM; DC50 [18]: 390 nM; DC50 [19]: 320 nM; DC50 [20]: 690 nM; DC50 [21]: 500 nM; DC50 [22]: 320 nM; DC50 [23]: 350 nM; DC50 [24]: 980 nM; DC50 [25]: 850 nM; DC50 [26]: > 1500 nM; inhibition [27]: Active; inhibition [28]: Active; Activity [1]: 0.2438 µM; Activity [2]: 0.4764 µM; Activity [3]: 0.1432 µM; inhibition [29]: Active; Activity [4]: 0.5372 µM; Activity [30]: Active; fold change (FC) [31]: 1800; fold change (FC) [32]: 700 to 1800; fold change (FC) [33]: 700 to 1800; fold change (FC) [34]: 700 to 1800; fold change (FC) [35]: 700 to 1800; fold change (FC) [36]: 700 to 1800; fold change (FC) [37]: 700 to 1800; fold change (FC) [38]: 700 to 1800; fold change (FC) [39]: 50 to 300; fold change (FC) [40]: 50 to 300; fold change (FC) [41]: 50 to 300; fold change (FC) [42]: 50 to 300

Q: With C[n+]1ccccc1/C=C/c1ccc(N2CCN(CCCN3C(=O)c4cccc5cccc(c45)C3=O)CC2)cc1.[I-] as the compound, how does the Activity [5] read?
A: inactive

Q: And the Activity [8]?
A: inactive

Q: And the Activity [9]?
A: inactive

Q: What about the Activity [10] of the same compound?
A: inactive

Q: And the Activity [11]?
A: inactive

Q: What about the Activity [12] of the same compound?
A: inactive

Q: And the Activity [13]?
A: inactive

Q: And the Activity [14]?
A: inactive

Q: What about the Activity [1] of the same compound?
A: 0.1913 µM

Q: What about the Activity [2] of the same compound?
A: 0.5566 µM

Q: And the Activity [3]?
A: 0.1014 µM

Q: What about the Activity [4] of the same compound?
A: 1.753 µM

Q: What about the fold change (FC) [31] of the same compound?
A: 16

Q: What about the fold change (FC) [32] of the same compound?
A: 700 to 1800

Q: What about the fold change (FC) [33] of the same compound?
A: 700 to 1800

Q: And the fold change (FC) [34]?
A: 700 to 1800

Q: What about the fold change (FC) [35] of the same compound?
A: 700 to 1800

Q: And the fold change (FC) [36]?
A: 700 to 1800

Q: And the fold change (FC) [37]?
A: 700 to 1800

Q: What about the fold change (FC) [38] of the same compound?
A: 700 to 1800

Q: And the fold change (FC) [39]?
A: 50 to 300

Q: And the fold change (FC) [40]?
A: 50 to 300

Q: And the fold change (FC) [41]?
A: 50 to 300

Q: And the fold change (FC) [42]?
A: 50 to 300
